# Data as given in ChEMBL document CHEMBL1138365, “Application of 3D-QSAR for identification of descriptors defining bioactivity of antimicrobial peptides” (2007).
# Starred links: 1 amine or outer side, 2 acyl side, 3 side chain; linkers in the order of their positions; H or OH if unused. Non-standard residues stand in square brackets, D forms with d. Residues, ends and D or L forms follow the SMILES beside them. ξ: configuration not given here. Pro(3ξ,4ξ-(CH2)4) = O=C(O)[C@H]1NCC2CCCCC21; Phe(4-F) = N[C@@H](Cc1ccc(F)cc1)C(=O)O; X1 = O=C([C@H]1C2CCCCC2CN1[*:1])[*:2]; Tic = O=C(O)[C@@H]1Cc2ccccc2CN1; dTic = O=C(O)[C@H]1Cc2ccccc2CN1; ξTic = O=C(O)C1Cc2ccccc2CN1; dOrn = NCCC[C@@H](N)C(=O)O; Orn = NCCC[C@H](N)C(=O)O; Ahx = NCCCCCC(=O)O; GABA = NCCCC(=O)O; βAla = NCCC(=O)O
# Tests used:
# [1] = system: Staphylococcus aureus; assay: Antibacterial activity against Staphylococcus aureus; assay type: functional
# [2] = system: Mycolicibacterium fortuitum; assay: Antibacterial activity against Mycobacterium ranae; assay type: functional
Compound,MIC [1],MIC [2]
"CC(=O)NCC(=O)N[C@@H](Cc1ccccc1)C(=O)N1Cc2ccccc2C[C@H]1C(=O)N1CC2CCCCC2[C@H]1C(=O)NCC(=O)N[C@@H](CCCCN)C(=O)N1Cc2ccccc2C[C@H]1C(=O)N1CC2CCCCC2[C@H]1C(=O)NCC(=O)N[C@@H](Cc1ccccc1)C(=O)N1Cc2ccccc2C[C@H]1C(=O)N1CC2CCCCC2[C@H]1C(=O)NCC(=O)N[C@@H](CCCCN)C(=O)N1Cc2ccccc2C[C@H]1C(=O)N[C@@H](CCCCN)C(=O)N[C@@H](CCCCN)C(=O)N[C@@H](CCCCN)C(=O)N[C@@H](CCCCN)C(=O)N[C@@H](CCCCN)C(N)=O (some centres undefined) (Ac-GF[Tic][Pro(3ξ,4ξ-(CH2)4)]GK[Tic][Pro(3ξ,4ξ-(CH2)4)]GF[Tic][Pro(3ξ,4ξ-(CH2)4)]GK[Tic]KKKKK-NH2)",3 µM,3 µM
"CC(=O)NCC(=O)N[C@@H](Cc1ccccc1)C(=O)N1Cc2ccccc2C[C@H]1C(=O)N1CC2CCCCC2[C@H]1C(=O)NCC(=O)N[C@@H](CCCCN)C(=O)N1Cc2ccccc2C[C@H]1C(=O)N1CC2CCCCC2[C@H]1C(=O)NCC(=O)N[C@@H](Cc1ccccc1)C(=O)N1Cc2ccccc2C[C@H]1C(=O)N1CC2CCCCC2[C@H]1C(=O)NCC(=O)N[C@@H](CCCCN)C(=O)N1Cc2ccccc2C[C@H]1C(=O)N[C@@H](CCCN)C(=O)N[C@@H](CCCN)C(=O)N[C@@H](CCCN)C(=O)N[C@@H](CCCN)C(N)=O (some centres undefined) (Ac-GF[Tic][Pro(3ξ,4ξ-(CH2)4)]GK[Tic][Pro(3ξ,4ξ-(CH2)4)]GF[Tic][Pro(3ξ,4ξ-(CH2)4)]GK[Tic][Orn][Orn][Orn][Orn]-NH2)",10 µM,10 µM
"CC(=O)NCC(=O)N[C@@H](Cc1ccccc1)C(=O)N1Cc2ccccc2C[C@H]1C(=O)N1CC2CCCCC2[C@@H]1C(=O)NCC(=O)N[C@H](CCCN)C(=O)N1Cc2ccccc2C[C@@H]1C(=O)N1CC2CCCCC2[C@H]1C(=O)NCC(=O)N[C@H](Cc1ccccc1)C(=O)N1Cc2ccccc2C[C@@H]1C(=O)N1CC2CCCCC2[C@@H]1C(=O)NCC(=O)N[C@H](CCCN)C(=O)N1Cc2ccccc2C[C@@H]1C(=O)N[C@H](CCCN)C(=O)N[C@H](CCCN)C(=O)N[C@H](CCCN)C(=O)N[C@H](CCCN)C(N)=O (some centres undefined) (Ac-GF[Tic][X1]G[dOrn][dTic][Pro(3ξ,4ξ-(CH2)4)]G[dF][dTic][X1]G[dOrn][dTic][dOrn][dOrn][dOrn][dOrn]-NH2)",3 µM,10 µM
"CC(=O)NCC(=O)N[C@@H](Cc1ccc(F)cc1)C(=O)N1Cc2ccccc2C[C@H]1C(=O)N1CC2CCCCC2[C@H]1C(=O)NCC(=O)N[C@@H](CCCCN)C(=O)N1Cc2ccccc2C[C@H]1C(=O)N1CC2CCCCC2[C@H]1C(=O)NCC(=O)N[C@@H](Cc1ccc(F)cc1)C(=O)N1Cc2ccccc2C[C@H]1C(=O)N1CC2CCCCC2[C@H]1C(=O)NCC(=O)N[C@@H](CCCCN)C(=O)N1Cc2ccccc2C[C@H]1C(=O)N[C@@H](CCCCN)C(=O)N[C@@H](CCCCN)C(=O)N[C@@H](CCCCN)C(=O)N[C@@H](CCCCN)C(N)=O (some centres undefined) (Ac-G[Phe(4-F)][Tic][Pro(3ξ,4ξ-(CH2)4)]GK[Tic][Pro(3ξ,4ξ-(CH2)4)]G[Phe(4-F)][Tic][Pro(3ξ,4ξ-(CH2)4)]GK[Tic]KKKK-NH2)",10 µM,3 µM
"CC(=O)NCC(=O)N1Cc2ccccc2C[C@H]1C(=O)N1CC2CCCCC2[C@H]1C(=O)N[C@@H](CCCCN)C(=O)N1Cc2ccccc2C[C@H]1C(=O)N1CC2CCCCC2[C@H]1C(=O)NCC(=O)N1Cc2ccccc2CC1C(=O)N1CC2CCCCC2[C@H]1C(=O)N[C@@H](CCCCN)C(=O)N1Cc2ccccc2C[C@H]1C(=O)N[C@@H](CCCCN)C(=O)N[C@@H](CCCCN)C(=O)N[C@@H](CCCCN)C(=O)N[C@@H](CCCCN)C(N)=O (some centres undefined) (Ac-G[Tic][Pro(3ξ,4ξ-(CH2)4)]K[Tic][Pro(3ξ,4ξ-(CH2)4)]G[ξTic][Pro(3ξ,4ξ-(CH2)4)]K[Tic]KKKK-NH2)",10 µM,3 µM
"CC(=O)NCCCCCC(=O)N[C@@H](Cc1ccccc1)C(=O)N1Cc2ccccc2C[C@H]1C(=O)N1CC2CCCCC2[C@H]1C(=O)NCCCCCC(=O)N[C@@H](CCCCN)C(=O)N1Cc2ccccc2C[C@H]1C(=O)N1CC2CCCCC2[C@H]1C(=O)NCCCCCC(=O)N[C@@H](Cc1ccccc1)C(=O)N1Cc2ccccc2C[C@H]1C(=O)N1CC2CCCCC2[C@H]1C(=O)NCCCCCC(=O)N[C@@H](CCCCN)C(=O)N1Cc2ccccc2C[C@H]1C(=O)N[C@@H](CCCCN)C(=O)N[C@@H](CCCCN)C(=O)N[C@@H](CCCCN)C(=O)N[C@@H](CCCCN)C(N)=O (some centres undefined) (Ac-[Ahx]F[Tic][Pro(3ξ,4ξ-(CH2)4)][Ahx]K[Tic][Pro(3ξ,4ξ-(CH2)4)][Ahx]F[Tic][Pro(3ξ,4ξ-(CH2)4)][Ahx]K[Tic]KKKK-NH2)",10 µM,3 µM
"CC(=O)NCCCC(=O)N[C@@H](Cc1ccccc1)C(=O)N1Cc2ccccc2C[C@H]1C(=O)N1CC2CCCCC2[C@H]1C(=O)NCCCC(=O)N[C@@H](CCCCN)C(=O)N1Cc2ccccc2C[C@H]1C(=O)N1CC2CCCCC2[C@H]1C(=O)NCCCC(=O)N[C@@H](Cc1ccccc1)C(=O)N1Cc2ccccc2C[C@H]1C(=O)N1CC2CCCCC2[C@H]1C(=O)NCCCC(=O)N[C@@H](CCCCN)C(=O)N1Cc2ccccc2C[C@H]1C(=O)N[C@@H](CCCCN)C(=O)N[C@@H](CCCCN)C(=O)N[C@@H](CCCCN)C(=O)N[C@@H](CCCCN)C(N)=O (some centres undefined) (Ac-[GABA]F[Tic][Pro(3ξ,4ξ-(CH2)4)][GABA]K[Tic][Pro(3ξ,4ξ-(CH2)4)][GABA]F[Tic][Pro(3ξ,4ξ-(CH2)4)][GABA]K[Tic]KKKK-NH2)",100 µM,10 µM
"CC(=O)NCCCC(=O)N[C@@H](Cc1ccccc1)C(=O)N1Cc2ccccc2C[C@H]1C(=O)N1CC2CCCCC2[C@H]1C(=O)NCCCC(=O)N[C@@H](CCCCN)C(=O)N1Cc2ccccc2C[C@H]1C(=O)N1CC2CCCCC2[C@H]1C(=O)NCCCC(=O)N[C@@H](Cc1ccccc1)C(=O)N1Cc2ccccc2C[C@H]1C(=O)N1CC2CCCCC2[C@H]1C(=O)NCCCC(=O)N[C@@H](CCCCN)C(=O)N1Cc2ccccc2C[C@H]1C(=O)N[C@@H](CCCCN)C(=O)N[C@@H](CCCCN)C(=O)N[C@@H](CCCCN)C(=O)N[C@@H](CCCCN)C(=O)N[C@@H](CCCCN)C(N)=O (some centres undefined) (Ac-[GABA]F[Tic][Pro(3ξ,4ξ-(CH2)4)][GABA]K[Tic][Pro(3ξ,4ξ-(CH2)4)][GABA]F[Tic][Pro(3ξ,4ξ-(CH2)4)][GABA]K[Tic]KKKKK-NH2)",30 µM,3 µM
"CC(=O)NCCC(=O)N[C@@H](Cc1ccccc1)C(=O)N1Cc2ccccc2C[C@H]1C(=O)N1CC2CCCCC2[C@H]1C(=O)NCCC(=O)N[C@@H](CCCCN)C(=O)N1Cc2ccccc2C[C@H]1C(=O)N1CC2CCCCC2[C@H]1C(=O)NCCC(=O)N[C@@H](Cc1ccccc1)C(=O)N1Cc2ccccc2C[C@@H]1C(=O)N1CC2CCCCC2[C@H]1C(=O)NCCC(=O)N[C@@H](CCCCN)C(=O)N1Cc2ccccc2C[C@H]1C(=O)N[C@@H](CCCCN)C(=O)N[C@@H](CCCCN)C(=O)N[C@@H](CCCCN)C(=O)N[C@@H](CCCCN)C(N)=O (some centres undefined) (Ac-[βAla]F[Tic][Pro(3ξ,4ξ-(CH2)4)][βAla]K[Tic][Pro(3ξ,4ξ-(CH2)4)][βAla]F[dTic][Pro(3ξ,4ξ-(CH2)4)][βAla]K[Tic]KKKK-NH2)",10 µM,1 µM
"NCCCC[C@H](NC(=O)[C@H](CCCCN)NC(=O)[C@H](CCCCN)NC(=O)[C@H](CCCCN)NC(=O)[C@@H]1Cc2ccccc2CN1C(=O)[C@H](CCCCN)NC(=O)CNC(=O)[C@@H]1C2CCCCC2CN1C(=O)[C@@H]1Cc2ccccc2CN1C(=O)[C@H](Cc1ccccc1)NC(=O)CNC(=O)[C@@H]1C2CCCCC2CN1C(=O)[C@@H]1Cc2ccccc2CN1C(=O)[C@H](CCCCN)NC(=O)CNC(=O)[C@@H]1C2CCCCC2CN1C(=O)[C@@H]1Cc2ccccc2CN1C(=O)[C@H](Cc1ccccc1)NC(=O)CN)C(N)=O (some centres undefined) (H-GF[Tic][Pro(3ξ,4ξ-(CH2)4)]GK[Tic][Pro(3ξ,4ξ-(CH2)4)]GF[Tic][Pro(3ξ,4ξ-(CH2)4)]GK[Tic]KKKK-NH2)",10 µM,10 µM
"CC(C)C[C@H](NC(=O)[C@@H](N)CCCCN)C(=O)N1Cc2ccccc2C[C@H]1C(=O)N1CC2CCCCC2[C@H]1C(=O)NCC(=O)N[C@@H](CCCCN)C(=O)N1Cc2ccccc2C[C@H]1C(=O)N1CC2CCCCC2[C@H]1C(=O)NCC(=O)N[C@@H](Cc1ccccc1)C(=O)N1Cc2ccccc2C[C@H]1C(=O)N1CC2CCCCC2[C@H]1C(=O)NCC(=O)N[C@@H](CCCCN)C(=O)N1Cc2ccccc2C[C@H]1C(=O)N[C@@H](CCCCN)C(=O)N[C@@H](CCCCN)C(=O)N[C@@H](CCCCN)C(=O)N[C@@H](CCCCN)C(N)=O (some centres undefined) (H-KL[Tic][Pro(3ξ,4ξ-(CH2)4)]GK[Tic][Pro(3ξ,4ξ-(CH2)4)]GF[Tic][Pro(3ξ,4ξ-(CH2)4)]GK[Tic]KKKK-NH2)",30 µM,3 µM
"CC(C)C[C@H](NC(=O)[C@@H](N)CCCCN)C(=O)N1Cc2ccccc2C[C@H]1C(=O)N1CC2CCCCC2[C@H]1C(=O)N[C@@H](CCCCN)C(=O)N1Cc2ccccc2C[C@H]1C(=O)N1CC2CCCCC2[C@H]1C(=O)N[C@@H](Cc1ccccc1)C(=O)N1Cc2ccccc2C[C@H]1C(=O)N1CC2CCCCC2[C@H]1C(=O)N[C@@H](CCCCN)C(=O)N1Cc2ccccc2C[C@H]1C(=O)N1CC2CCCCC2[C@H]1C(=O)N[C@@H](Cc1ccccc1)C(=O)N1Cc2ccccc2C[C@H]1C(=O)N1CC2CCCCC2[C@H]1C(=O)N[C@@H](CCCCN)C(=O)N1Cc2ccccc2C[C@H]1C(=O)N1CC2CCCCC2[C@H]1C(=O)N[C@@H](CCCCN)C(=O)N[C@@H](CCCNC(=N)N)C(N)=O (some centres undefined) (H-KL[Tic][Pro(3ξ,4ξ-(CH2)4)]K[Tic][Pro(3ξ,4ξ-(CH2)4)]F[Tic][Pro(3ξ,4ξ-(CH2)4)]K[Tic][Pro(3ξ,4ξ-(CH2)4)]F[Tic][Pro(3ξ,4ξ-(CH2)4)]K[Tic][Pro(3ξ,4ξ-(CH2)4)]KR-NH2)",10 µM,30 µM
